Results taken from US9567302B2, “Carbamate compounds and of making and using same” (Abide Therapeutics, Inc., priority 2012, dated 2017).

Tests used:
Type in all cases: biochemical
Parameters in all cases: from tissue; host or cells: mouse brain membrane fraction
Conditions in all cases: Table 2, mouse proteome, 30 min preincubation at 37° C.
[1] = target: T1, MAGL (Mus musculus, UniProt O35678); assay: In vitro competitive activity-based protein profiling (FP-Rh), mouse MAGL
T1 sequence (O35678 1-303): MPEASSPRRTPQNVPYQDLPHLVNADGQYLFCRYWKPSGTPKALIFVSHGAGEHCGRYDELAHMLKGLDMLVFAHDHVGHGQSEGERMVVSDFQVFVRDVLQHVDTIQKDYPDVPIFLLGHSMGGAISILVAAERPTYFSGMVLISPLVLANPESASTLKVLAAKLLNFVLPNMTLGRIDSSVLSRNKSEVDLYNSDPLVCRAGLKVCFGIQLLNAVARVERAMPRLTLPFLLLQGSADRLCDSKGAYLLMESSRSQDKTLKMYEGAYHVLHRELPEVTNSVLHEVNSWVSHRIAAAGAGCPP
Procedure: (§1) In Vitro Competitive Activity-Based Protein Profiling.
(§2) Proteomes (mouse brain membrane fraction or cell lysates) (50 μL, 1.0 mg/ml total protein concentration) were preincubated with varying concentrations of inhibitors at 37° C. After 30 min, FP-Rh (1.0 μL, 50 μM in DMSO) was added and the mixture was incubated for another 30 min at 37° C. Reactions were quenched with SDS loading buffer (50 μL—4×) and run on SDS-PAGE.

[2] = target: T2, FAAH (Mus musculus, UniProt O08914); assay: In vitro competitive activity-based protein profiling (FP-Rh), mouse FAAH
T2 sequence (O08914 1-579): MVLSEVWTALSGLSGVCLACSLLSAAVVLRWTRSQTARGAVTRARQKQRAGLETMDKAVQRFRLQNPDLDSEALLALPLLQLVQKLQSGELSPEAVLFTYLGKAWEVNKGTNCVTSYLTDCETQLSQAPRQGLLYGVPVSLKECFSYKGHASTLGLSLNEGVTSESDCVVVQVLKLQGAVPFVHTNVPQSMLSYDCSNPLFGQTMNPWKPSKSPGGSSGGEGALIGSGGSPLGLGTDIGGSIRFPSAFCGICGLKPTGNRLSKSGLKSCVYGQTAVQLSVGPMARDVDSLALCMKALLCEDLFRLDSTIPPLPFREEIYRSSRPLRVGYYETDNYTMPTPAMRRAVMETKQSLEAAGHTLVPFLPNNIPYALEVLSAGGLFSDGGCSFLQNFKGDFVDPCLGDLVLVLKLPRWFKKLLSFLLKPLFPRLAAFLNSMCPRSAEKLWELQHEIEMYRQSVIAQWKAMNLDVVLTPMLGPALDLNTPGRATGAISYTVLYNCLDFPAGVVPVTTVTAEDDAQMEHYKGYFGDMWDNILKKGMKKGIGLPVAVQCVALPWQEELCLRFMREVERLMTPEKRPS
Procedure: as §1, §2

[3] = target: T3, ABHD6 (Mus musculus, UniProt Q8R2Y0); assay: In vitro competitive activity-based protein profiling (FP-Rh), mouse ABHD6
T3 sequence (Q8R2Y0 1-336): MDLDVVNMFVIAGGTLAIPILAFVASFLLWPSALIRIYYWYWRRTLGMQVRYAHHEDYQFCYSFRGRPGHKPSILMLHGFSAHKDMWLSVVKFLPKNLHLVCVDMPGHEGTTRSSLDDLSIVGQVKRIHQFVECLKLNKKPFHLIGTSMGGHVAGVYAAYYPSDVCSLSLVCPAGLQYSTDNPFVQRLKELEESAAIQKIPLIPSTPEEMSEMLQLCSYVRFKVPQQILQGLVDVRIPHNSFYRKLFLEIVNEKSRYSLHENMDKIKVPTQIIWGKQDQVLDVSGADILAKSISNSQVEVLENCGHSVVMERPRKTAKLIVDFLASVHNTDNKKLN
Procedure: as §1, §2

IC50 [1] | IC50 [2] | IC50 [3] | Structure (SMILES)
< 100 nM | 1000 to 10000 nM | 1000 to 10000 nM | O=C(ON1C(=O)CCC1=O)N1CCN(Cc2ccc(Br)cc2N2CCOCC2)CC1 [Example 66, 2,5-Dioxopyrrolidin-1-yl 4-(4-bromo-2-morpholinobenzyl)piperazine-1-carboxylate]
1000 to 10000 nM | 1000 to 10000 nM | 1000 to 10000 nM | COc1cc(N2CCOCC2)ccc1CN1CCN(C(=O)ON2C(=O)CCC2=O)CC1 [Example 67, 2,5-Dioxopyrrolidin-1-yl 4-(2-methoxy-4-morpholinobenzyl)piperazine-1-carboxylate]
100 to 1000 nM | 1000 to 10000 nM | 100 to 1000 nM | Cc1cc(N2CCCC2)ccc1CN1CCN(C(=O)ON2C(=O)CCC2=O)CC1 [Example 68, 2,5-Dioxopyrrolidin-1-yl 4-(2-methyl-4-(pyrrolidin-1-yl)benzyl)piperazine-1-carboxylate]
< 100 nM | 1000 to 10000 nM | 100 to 1000 nM | O=C(ON1C(=O)CCC1=O)N1CCN(Cc2ccc(Cl)cc2N2CCOCC2)CC1 [Example 69, 2,5-Dioxopyrrolidin-1-yl 4-(4-chloro-2-morpholinobenzyl)piperazine-1-carboxylate]
100 to 1000 nM | 1000 to 10000 nM | 1000 to 10000 nM | Cc1ccc(CN2CCN(C(=O)ON3C(=O)CCC3=O)CC2)cc1 [Example 71, 2,5-Dioxopyrrolidin-1-yl 4-(4-methylbenzyl)piperazine-1-carboxylate]
< 100 nM | > 10000 nM | 100 to 1000 nM | O=C(ON1C(=O)CCC1=O)N1CCN(Cc2ccc(Cl)cc2N2CCCC2)CC1 [Example 74, 2,5-Dioxopyrrolidin-1-yl 4-(4-chloro-2-(pyrrolidin-1-yl)benzyl)piperazine-1-carboxylate]
100 to 1000 nM | > 10000 nM | 1000 to 10000 nM | O=C(ON1C(=O)CCC1=O)N1CCN(Cc2ccc(N3CCCC3)c(F)c2)CC1 [Example 75, 2,5-Dioxopyrrolidin-1-yl 4-(3-fluoro-4-(pyrrolidin-1-yl)benzyl)piperazine-1-carboxylate]
< 100 nM | 1000 to 10000 nM | < 100 nM | O=C(ON1C(=O)CCC1=O)N1CCN(Cc2ccc(N3CCCC3)cc2Cl)CC1 [Example 78, 2,5-Dioxopyrrolidin-1-yl 4-(2-chloro-4-(pyrrolidin-1-yl)benzyl)piperazine-1-carboxylate]
100 to 1000 nM | > 10000 nM | 1000 to 10000 nM | O=C(ON1C(=O)CCC1=O)N1CCN(Cc2cccc(Cl)c2N2CCOCC2)CC1 [Example 82, 2,5-Dioxopyrrolidin-1-yl 4-{[3-chloro-2-(morpholin-4-yl)phenyl]methyl}piperazine-1-carboxylate]
100 to 1000 nM | > 10000 nM | 100 to 1000 nM | O=C(ON1C(=O)CCC1=O)N1CCN(Cc2cccc(N3CCOCC3)c2)CC1 [Example 83, 2,5-Dioxopyrrolidin-1-yl 4-(3-morpholinobenzyl)piperazine-1-carboxylate]
100 to 1000 nM | > 10000 nM | 1000 to 10000 nM | O=C(ON1C(=O)CCC1=O)N1CCN(Cc2ccc(Cl)cc2-n2cccn2)CC1 [Example 84, 2,5-Dioxopyrrolidin-1-yl 4-(4-chloro-2-(1H-pyrazol-1-yl)benzyl)piperazine-1-carboxylate]
< 100 nM | > 10000 nM | 1000 to 10000 nM | CC(=O)NC1CCN(c2cc(Cl)ccc2CN2CCN(C(=O)ON3C(=O)CCC3=O)CC2)C1 (stereo not drawn) [Example 85, 2,5-Dioxopyrrolidin-1-yl 4-(2-(3-acetamidopyrrolidin-1-yl)-4-chlorobenzyl)piperazine-1-carboxylate]
< 100 nM | > 10000 nM | 100 to 1000 nM | O=C(ON1C(=O)CCC1=O)N1CCN(Cc2ccc(C(F)(F)F)cc2N2CCOCC2)CC1 [Example 91, 2,5-Dioxopyrrolidin-1-yl 4-{[2-(morpholin-4-yl)-4-(trifluoromethyl)phenyl]methyl}piperazine-1-carboxylate]
100 to 1000 nM | > 10000 nM | 1000 to 10000 nM | O=C(ON1C(=O)CCC1=O)N1CCN(Cc2cc(Cl)ccc2N2CCOCC2)CC1 [Example 92, 2,5-Dioxopyrrolidin-1-yl 4-{[5-chloro-2-(morpholin-4-yl)phenyl]methyl}piperazine-1-carboxylate]
100 to 1000 nM | > 10000 nM | > 10000 nM | O=C(ON1C(=O)CCC1=O)N1CCN(Cc2cccc(F)c2N2CCOCC2)CC1 [Example 93, 2,5-dioxopyrrolidin-1-yl 4-{[3-fluoro-2-(morpholin-4-yl)phenyl]methyl}piperazine-1-carboxylate]
1000 to 10000 nM | > 10000 nM | 1000 to 10000 nM | O=C(ON1C(=O)CCC1=O)N1CCN(Cc2ccc(N3CCOCC3)cc2Cl)CC1 [Example 94, 2,5-Dioxopyrrolidin-1-yl 4-(2-chloro-4-morpholinobenzyl)piperazine-1-carboxylate]
< 100 nM | > 10000 nM | 100 to 1000 nM | O=C(ON1C(=O)CCC1=O)N1CCN(Cc2ccc(Cl)cc2-n2cc(Cl)cn2)CC1 [Example 95, 2,5-Dioxopyrrolidin-1-yl 4-(4-chloro-2-(4-chloro-1H-pyrazol-1-yl)benzyl)piperazine-1-carboxylate]
1000 to 10000 nM | > 10000 nM | 100 to 1000 nM | O=C(ON1C(=O)CCC1=O)N1CCN(Cc2c(Cl)cccc2N2CCCC2)CC1 [Example 97, 2,5-Dioxopyrrolidin-1-yl 4-{[2-chloro-6-(pyrrolidin-1-yl)phenyl]methyl}piperazine-1-carboxylate]
< 100 nM | > 10000 nM | 100 to 1000 nM | O=C(ON1C(=O)CCC1=O)N1CCN(Cc2cc(Cl)ccc2N2CCCC2)CC1 [Example 98, 2,5-Dioxopyrrolidin-1-yl 4-{[5-chloro-2-(pyrrolidin-1-yl)phenyl]methyl}piperazine-1-carboxylate]
1000 to 10000 nM | > 10000 nM | 100 to 1000 nM | O=C(ON1C(=O)CCC1=O)N1CCN(Cc2ccc(N3CCOCC3)c(Cl)c2)CC1 [Example 101, 2,5-dioxopyrrolidin-1-yl 4-(3-chloro-4-morpholinobenzyl)piperazine-1-carboxylate]
100 to 1000 nM | > 10000 nM | 100 to 1000 nM | O=C(ON1C(=O)CCC1=O)N1CCN(Cc2ccc(N3CCCC3)cc2OC(F)(F)F)CC1 [Example 104, 2,5-Dioxopyrrolidin-1-yl 4-{[4-(pyrrolidin-1-yl)-2-(trifluoromethoxy)phenyl]methyl}piperazine-1-carboxylate]
< 100 nM | > 10000 nM | 1000 to 10000 nM | O=C(ON1C(=O)CCC1=O)N1CCN(Cc2cccc(Cl)c2N2CCCC2)CC1 [Example 106, 2,5-Dioxopyrrolidin-1-yl 4-{[3-chloro-2-(pyrrolidin-1-yl)phenyl]methyl}piperazine-1-carboxylate]
< 100 nM | > 10000 nM | 100 to 1000 nM | O=C(ON1C(=O)CCC1=O)N1CCN(Cc2cccc(F)c2N2CCCC2)CC1 [Example 107, 2,5-Dioxopyrrolidin-1-yl 4-{[3-fluoro-2-(pyrrolidin-1-yl)phenyl]methyl}piperazine-1-carboxylate]
1000 to 10000 nM | > 10000 nM | 1000 to 10000 nM | O=C(ON1C(=O)CCC1=O)N1CCN(Cc2ccc(-n3cccn3)c(F)c2)CC1 [Example 108, 2,5-Dioxopyrrolidin-1-yl 4-(3-fluoro-4-(1H-pyrazol-1-yl)benzyl)piperazine-1-carboxylate]

Structure (SMILES) | IC50 [1] | IC50 [2] | IC50 [3]
COc1ccc(CN2CCN(C(=O)ON3C(=O)CCC3=O)CC2)cc1 [Example 70, 2,5-Dioxopyrrolidin-1-yl 4-(4-methoxybenzyl)piperazine-1-carboxylate] | 1000 to 10000 nM | 1000 to 10000 nM | 1000 to 10000 nM
